Legend:
aldose reductase = molecular target: T1, aldose reductase (Bos taurus, UniProt P16116); test: In vitro aldose reductase inhibition (modified procedure of Hayman and Kinoshita, enzyme from bovine lens); type: biochemical
T1 construct: preparation of the enzyme from bovine lens; from tissue; host or cells: bovine lens
Method: Only two minor reagent changes were made: (a) the rinsing mixture was an aqueous 5% (w/v) trichloroacetic acid solution and (b) the stock solution was prepared by dissolving 25 mg of dulcitol in 100 mL of an aqueous trichloroacetic acid solution. [N.B.: For each experiment the average value found in the tissue from rats fed the glucose diet was subtracted from the individual values found in the corresponding tissue in galactose-fed rats to obtain the amount of polyol accumulated.] […] In the present case the procedure of Hayman and Kinoshita was modified in that the final chromatography step was omitted in the preparation of the enzyme from bovine lens.

[1] = system: galactitol (dulcitol) accumulation in tissues of galactosemic rats; test: Galactosemic rat test: lowering of galactitol (dulcitol) accumulation in lens, sciatic nerve and diaphragm; type: in vivo, rat (Sprague-Dawley, male); design: key to % Lowering Galactitol Accumulation In vivo, L: NS: not significant; details: 4 days, vs untreated galactosemic rats; for % Lowering Galactitol Accumulation In vivo, D: diaphragm; for % Lowering Galactitol Accumulation In vivo, L: lens
From the text: The aldose reductase inhibiting property of the compounds of this invention and the utilization of the compounds in preventing, diminishing and alleviating diabetic complications are demonstrable in experiments using galactosemic rats, see Dvornik et al., Science, 182, 1146 (1973). Such experiments are exemplified hereinbelow after the listing of the following general comments pertaining to these experiments:
(a) Four or more groups of six male rats, 50-70 g, Sprague-Dawley strain, were used. The first group, the control group, was fed a mixture of laboratory chow (rodent Laboratory Chow, Purina) and glucose at 20% (w/w %) concentration. An untreated galactosemic group was fed a similar diet in which galactose was substituted for glucose. The third group was fed a diet prepared by mixing a given amount of the test compound with the galactose containing diet. The concentration of galactose in the diet of the treated groups was the same as that for the untreated galactosemic group.
(b) After four days, the animals were killed by euthanization. Both the lens and sciatic nerve were removed, weighed and stored frozen for polyol determination.
(c) The polyol determination was performed by a modification of the procedure of M. Kraml and L. Cosyns, Clin. Biochem., 2,373 (1969). Only two minor reagent changes were made: (a) the rinsing mixture was an aqueous 5% (w/v) trichloroacetic acid solution and (b) the stock solution was prepared by dissolving 25 mg of dulcitol in 100 mL of an aqueous trichloroacetic acid solution. [N.B.: For each experiment the average value found in the tissue from rats fed the glucose diet was subtracted from the individual values found in the corresponding tissue in galactose-fed rats to obtain the amount of polyol accumulated.] The aldose reductase inhibiting effects of the compounds of formula (I) were also tested by employing an in vitro testing procedure similar to that described by S. Hayman and J. H. Kinoshita, J. Biol. Chem., 240, 877 (1965). In the present case the procedure of Hayman and Kinoshita was modified in that the final chromatography step was omitted in the preparation of the enzyme from bovine lens.
The figures under L, N, and D represent the percentage decrease of dulcitol accumulation in the tissues of the lens, sciatic nerve, and diaphragm, respectively, for treated rats as compared to untreated rats.

[2] = column headed 10^5 (concentration unit not given)
[3] = column headed 10^-6 (concentration unit not given)
[4] = column headed 10^-7 (concentration unit not given)

Compound | % Inhibition In Vitro (aldose reductase; [2]) [%] | % Inhibition In Vitro (aldose reductase; [3]) [%] | % Inhibition In Vitro (aldose reductase; [4]) [%] | % Lowering Galactitol Accumulation In vivo, D ([1]; 28 mg/kg/day in diet) [%] | % Lowering Galactitol Accumulation In vivo, L ([1]; 28 mg/kg/day in diet) [%] | % Lowering Galactitol Accumulation In vivo, D ([1]; 11 mg/kg/day in diet) [%] | % Lowering Galactitol Accumulation In vivo, D ([1]; 49 mg/kg/day in diet) [%] | % Lowering Galactitol Accumulation In vivo, L ([1]; 11 mg/kg/day in diet) | % Lowering Galactitol Accumulation In vivo, L ([1]; 49 mg/kg/day in diet) [%]
CN1C(=O)c2ccc(Br)cc2C2(CC(=O)N2)C1=O (stereo not drawn) [Br CH3, 6'-bromo-2'-methylspiro[azetidine-2,4'(1'H)-isoquinoline]-1',3',4(2'H)-trione] | 96 | 77 | 16 | 86 | 36 | – | – | – | –
CN1C(=O)c2ccc(Cl)cc2C2(CC(=O)N2)C1=O (stereo not drawn) [Cl CH3, 6'-chloro-2'-methylspiro[azetidine-2,4'(1'H)-isoquinoline]-1',3',4(2'H)-trione] | 84 | 75 | 22 | – | – | 70 | 82 | NS | 66
